Results from patent US11826351B2, “Compounds useful as kinase inhibitors” (Loxo Oncology, Inc., priority 2015, dated 2023).
Read-outs that look alike come from different tables or passages of the source.

What was measured:
Recombinant EGFR = molecular target: T1, Recombinant EGFR (Homo sapiens, UniProt P00533); assay: EGFR binding affinity (LanthaScreen TR-FRET); details: Kinase Tracer 199, 5 h incubation
T1 construct: purchased Invitrogen
In short: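 TR-FRET binding (LanthaScreen) with recombinant EGFR; signal measured across a compound concentration range. IC50 obtained by fitting RFU against log[inhibitor] to a variable-slope model.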

[1] = molecular target: T2, Recombinant BTK^WT kinase (Homo sapiens, UniProt Q06187); assay: BTK WT binding affinity (LanthaScreen TR-FRET); details: Kinase Tracer 236, 5 h incubation
T2 construct: purchased Invitrogen
T2 sequence (Q06187 whole entry): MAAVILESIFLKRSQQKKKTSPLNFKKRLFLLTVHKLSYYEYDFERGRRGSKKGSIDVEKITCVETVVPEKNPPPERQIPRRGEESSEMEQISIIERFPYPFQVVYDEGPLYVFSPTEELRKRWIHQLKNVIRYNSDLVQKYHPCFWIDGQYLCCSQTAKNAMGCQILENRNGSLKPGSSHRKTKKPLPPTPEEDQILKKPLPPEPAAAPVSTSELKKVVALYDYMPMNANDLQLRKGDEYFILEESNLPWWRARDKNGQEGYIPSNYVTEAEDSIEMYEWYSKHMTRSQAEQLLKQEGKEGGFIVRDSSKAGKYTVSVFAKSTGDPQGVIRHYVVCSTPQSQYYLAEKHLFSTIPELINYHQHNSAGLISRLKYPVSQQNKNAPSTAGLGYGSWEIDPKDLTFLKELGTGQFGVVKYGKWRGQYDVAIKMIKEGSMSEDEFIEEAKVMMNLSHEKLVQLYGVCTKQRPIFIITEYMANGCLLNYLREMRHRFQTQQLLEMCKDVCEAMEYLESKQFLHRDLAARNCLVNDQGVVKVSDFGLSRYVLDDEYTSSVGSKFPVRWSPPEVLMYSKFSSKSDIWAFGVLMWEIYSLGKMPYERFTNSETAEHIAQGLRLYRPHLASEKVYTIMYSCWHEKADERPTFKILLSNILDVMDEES
In short: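 Tracer-displacement TR-FRET: 2.5 nM recombinant BTK^WT, 2 nM Eu anti-His antibody and 15 nM Kinase Tracer 236 incubated with varying inhibitor concentrations for 5 h in Kinase Buffer A. Signal read at 340 nm excitation, 615/665 nm emission; IC50 from variable-slope log[inhibitor]–response fit.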

[2] = molecular target: T3, Recombinant BTK^C481S kinase (Homo sapiens, UniProt Q06187, C481S); assay: BTK C481S binding affinity (LanthaScreen TR-FRET); details: Kinase Tracer 236, 5 h incubation
T3 construct: purchased SignalChem
T3 sequence (Q06187 whole entry C481S): as the sequence (Q06187 whole entry) above, with C481S counted along it
In short: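 BTK C481S tracer-displacement TR-FRET: 5 nM His-tagged kinase, 2 nM Eu anti-His antibody and 30 nM Kinase Tracer 236 incubated with titrated inhibitor for 5 h in Kinase Buffer A. Read at 340 nm excitation, 615/665 nm emission; IC50 from variable-slope log[inhibitor]–response fit.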

[3] = tested on: OCI-Ly10 human DLBCL cells; assay: OCI-Ly10 anti-proliferative activity (Resazurin); type: cell-based; details: OCI-Ly10 cells, 72 h compound treatment, Resazurin, read-out: Proliferation Assay OCI-Ly10-20% FBS
In short: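 OCI-Ly10 human DLBCL cells, whose growth depends on NFκB signalling, were seeded at 7.5×10^3 cells per well in 96-well plates with a range of compound concentrations and kept at 37° C for 72 h. Resazurin was then added, and after 5 h fluorescence was read at 590 nm.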

T1 sequence (P00533 25-1210): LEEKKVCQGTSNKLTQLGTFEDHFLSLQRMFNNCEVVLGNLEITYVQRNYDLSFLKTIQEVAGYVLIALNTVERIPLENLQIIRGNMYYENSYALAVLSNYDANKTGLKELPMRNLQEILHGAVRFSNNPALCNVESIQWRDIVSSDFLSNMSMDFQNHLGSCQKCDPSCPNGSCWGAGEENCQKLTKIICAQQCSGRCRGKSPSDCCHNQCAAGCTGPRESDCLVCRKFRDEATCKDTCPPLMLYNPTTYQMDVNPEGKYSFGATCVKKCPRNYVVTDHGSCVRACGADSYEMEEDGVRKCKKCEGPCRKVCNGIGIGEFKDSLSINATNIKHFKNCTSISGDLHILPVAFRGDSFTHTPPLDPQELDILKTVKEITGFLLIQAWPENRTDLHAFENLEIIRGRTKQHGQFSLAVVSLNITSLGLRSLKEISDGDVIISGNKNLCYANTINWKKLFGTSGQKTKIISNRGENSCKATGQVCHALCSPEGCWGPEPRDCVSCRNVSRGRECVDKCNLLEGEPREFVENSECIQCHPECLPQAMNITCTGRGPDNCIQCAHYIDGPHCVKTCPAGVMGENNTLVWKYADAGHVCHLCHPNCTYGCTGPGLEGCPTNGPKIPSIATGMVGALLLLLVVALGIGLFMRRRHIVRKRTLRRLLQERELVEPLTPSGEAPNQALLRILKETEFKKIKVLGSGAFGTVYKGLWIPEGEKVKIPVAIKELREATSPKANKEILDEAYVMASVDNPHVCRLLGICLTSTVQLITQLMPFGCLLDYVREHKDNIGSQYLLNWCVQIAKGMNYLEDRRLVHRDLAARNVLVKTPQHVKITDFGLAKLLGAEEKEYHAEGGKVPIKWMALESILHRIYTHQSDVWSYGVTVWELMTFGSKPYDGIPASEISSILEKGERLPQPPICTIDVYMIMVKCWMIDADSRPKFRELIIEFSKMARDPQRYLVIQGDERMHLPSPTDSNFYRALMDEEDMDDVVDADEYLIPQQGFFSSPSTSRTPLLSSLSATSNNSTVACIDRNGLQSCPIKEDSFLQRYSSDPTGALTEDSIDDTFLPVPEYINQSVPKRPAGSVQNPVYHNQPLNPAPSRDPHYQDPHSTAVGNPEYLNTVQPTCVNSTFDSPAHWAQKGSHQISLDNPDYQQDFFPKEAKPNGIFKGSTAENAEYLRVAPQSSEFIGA

IC50 (Recombinant EGFR) [nM] | IC50 [1] [nM] | IC50 [2] [nM] | IC50 ([3]; Homo sapiens, OCI-Ly10, 72 h) [nM] | IC50 [3] [nM] | Compound
100 to 1000 | < 10 | < 10 | 100 to 1000 | – | COc1ccccc1C(=O)NCc1ccc(-c2nn(CC(F)(F)F)c(N)c2C(N)=O)cc1 [Example 21, 5-Amino-3-[4-[[(2-methoxybenzoyl)amino]methyl]phenyl]-1-(2,2,2-trifluoroethyl)pyrazole-4-carboxamide]
1000 to 10000 | < 10 | < 10 | 100 to 1000 | – | COc1ccc(F)cc1C(=O)NCc1ccc(-c2nn(C(C)C3CCOC3)c(N)c2C(N)=O)cc1 (mixture of isomers) [Example 172, 5-amino-3-[4-[[(5-fluoro-2-methoxy-benzoyl)amino]methyl]phenyl]-1-(1-tetrahydrofuran-3-ylethyl)pyrazole-4-carboxamide]
1000 to 10000 | 10 to 100 | < 10 | 100 to 1000 | – | COc1ccccc1C(=O)NCc1ccc(-c2nn(-c3ccncc3)c(N)c2C(N)=O)cc1 [Example 54, 5-amino-3-[4-[[(2-methoxybenzoyl)amino]methyl]phenyl]-1-(4-pyridyl)pyrazole-4-carboxamide]
10 to 100 | < 10 | < 10 | < 10 | – | COc1ccccc1C(=O)NCc1ccc(-c2nn(C3CCC(C)(C)CC3)c(N)c2C(N)=O)cc1 [Example 26, 5-Amino-1-(4,4-dimethylcyclohexyl)-3-[4-[[(2-methoxybenzoyl)amino]methyl]phenyl]pyrazole-4-carboxamide]
100 to 1000 | < 10 | < 10 | 10 to 100 | – | COc1ccccc1C(=O)NCc1ccc(-c2nn(CC3CCCCC3)c(N)c2C(N)=O)cc1 [Example 17, 5-amino-1-(cyclohexylmethyl)-3-[4-[[(2-methoxybenzoyl)amino]methyl]phenyl]pyrazole-4-carboxamide]
1000 to 10000 | < 10 | < 10 | 100 to 1000 | – | COc1ccccc1C(=O)NCc1ccc(-c2nn(CC(F)(F)F)c(N)c2C(N)=O)cc1F [Example 129, 5-amino-3-[3-fluoro-4-[[(2-methoxybenzoyl)amino]methyl]phenyl]-1-(2,2,2-trifluoroethyl)pyrazole-4-carboxamide]
> 10000 | 10 to 100 | < 10 | 100 to 1000 | – | COc1ccc(F)cc1C(=O)NCc1ccc(-c2nn(CC(F)(F)F)c(N)c2C(N)=O)c(F)c1 [Example 125, 5-amino-3-[2-fluoro-4-[[(5-fluoro-2-methoxy-benzoyl)amino]methyl]phenyl]-1-(2,2,2-trifluoroethyl)pyrazole-4-carboxamide]
1000 to 10000 | 10 to 100 | < 10 | 1000 to 10000 | – | COc1ccccc1C(=O)NCc1ccc(-c2nn(C(CO)CCl)c(N)c2C(N)=O)cc1 (stereo not shown) [Example 66, 5-amino-1-[1-(chloromethyl)-2-hydroxy-ethyl]-3-[4-[[(2-methoxybenzoyl)amino]methyl]phenyl]pyrazole-4-carboxamide]
1000 to 10000 | 10 to 100 | < 10 | 100 to 1000 | – | COc1ccccc1C(=O)NCc1ccc(-c2nn(-c3cccc(C(F)(F)F)c3)c(N)c2C(N)=O)cc1 [Example 16, 5-Amino-3-[4-[[(2-methoxybenzoyl)amino]methyl]phenyl]-1-[3-(trifluoromethyl)phenyl]pyrazole-4-carboxamide]
1000 to 10000 | < 10 | < 10 | – | < 10 | COc1ccc(F)cc1C(=O)NCc1ccc(-c2nn([C@H](C)C(F)(F)F)c(N)c2C(N)=O)cc1 (single isomer, unassigned) [Example 163a, 5-amino-3-[4-[[(5-fluoro-2-methoxy-benzoyl)amino]methyl]phenyl]-1-(2,2,2-trifluoro-1-methyl-ethyl)pyrazole-4-carboxamide]
100 to 1000 | < 10 | < 10 | 10 to 100 | – | COc1ccccc1C(=O)NCc1ccc(-c2nn(C3CCC(O)(C(F)(F)F)CC3)c(N)c2C(N)=O)cc1 (stereo not shown) [Example 65, 5-amino-1-[4-hydroxy-4-(trifluoromethyl)cyclohexyl]-3-[4-[[(2-methoxybenzoyl)amino]methyl]phenyl]pyrazole-4-carboxamide]
100 to 1000 | < 10 | < 10 | < 10 | 10 to 100 | COc1ccccc1C(=O)NCc1ccc(-c2nn(C3CCCCC3)c(N)c2C(N)=O)cc1 [Example 18, 5-amino-1-cyclohexyl-3-[4-[[(2-methoxybenzoyl)amino]methyl]phenyl]pyrazole-4-carboxamide]
100 to 1000 | < 10 | < 10 | 10 to 100 | – | COc1ccccc1C(=O)NCc1ccc(-c2nn([C@H]3CC[C@H](F)C3)c(N)c2C(N)=O)cc1 (relative stereo) [Example 41, 5-amino-1-[(1S*,3S*)-3-fluorocyclopentyl]-3-[4-[[(2-methoxybenzoyl)amino]methyl]phenyl]pyrazole-4-carboxamide]
> 10000 | 10 to 100 | 10 to 100 | 100 to 1000 | – | COc1ccccc1C(=O)NCc1cc(F)c(-c2nn(C3CCOC3)c(N)c2C(N)=O)cc1F (stereo not shown) [Example 152, 5-amino-3-[2,5-difluoro-4-[[(2-methoxybenzoyl)amino]methyl]phenyl]-1-tetrahydrofuran-3-yl-pyrazole-4-carboxamide]
1000 to 10000 | < 10 | < 10 | 10 to 100 | – | COC(=O)c1ccc(-n2nc(-c3ccc(CNC(=O)c4ccccc4OC)cc3)c(C(N)=O)c2N)cc1 [Example 45, Methyl 4-[5-amino-4-carbamoyl-3-[4-[[(2-methoxybenzoyl)amino]methyl]phenyl]pyrazol-1-yl]benzoate]
100 to 1000 | < 10 | < 10 | 10 to 100 | – | CNc1c(C(N)=O)c(-c2ccc(CNC(=O)c3ccccc3OC)cc2)nn1C1CCCC1 [Example 60, 1-cyclopentyl-3-[4-[[(2-methoxybenzoyl)amino]methyl]phenyl]-5-(methylamino)pyrazole-4-carboxamide]
> 10000 | 10 to 100 | 10 to 100 | 1000 to 10000 | – | COc1ccccc1C(=O)NCc1ccc(-c2nn(C3CCCC3)c(N)c2C(N)=O)cn1 [Example 134, 5-amino-1-cyclopentyl-3-[6-[[(2-methoxybenzoyl)amino]methyl]-3-pyridyl]pyrazole-4-carboxamide]
100 to 1000 | < 10 | < 10 | – | 10 to 100 | COc1ccccc1C(=O)NCc1ccc(-c2nn(C3CCOC3C)c(N)c2C(N)=O)cc1 (single isomer, unassigned) [Example 77, 5-amino-3-[4-[[(2-methoxybenzoyl)amino]methyl]phenyl]-1-[2-methyltetrahydrofuran-3-yl]pyrazole-4-carboxamide]
1000 to 10000 | < 10 | < 10 | 100 to 1000 | – | COc1ccccc1C(=O)NCc1cc(F)c(-c2nn(C3CCCOC3)c(N)c2C(N)=O)cc1F (stereo not shown) [Example 151, 5-amino-3-[2,5-difluoro-4-[[(2-methoxybenzoyl)amino]methyl]phenyl]-1-tetrahydropyran-3-yl-pyrazole-4-carboxamide]
1000 to 10000 | 10 to 100 | < 10 | 100 to 1000 | – | COc1ccccc1C(=O)NCc1ccc(-c2nn(C(C(C)C)C(F)(F)F)c(N)c2C(N)=O)cc1 (stereo not shown) [Example 171, 5-amino-3-[4-[[(2-methoxybenzoyl)amino]methyl]phenyl]-1-[2-methyl-1-(trifluoromethyl)propyl]pyrazole-4-carboxamide]
1000 to 10000 | < 10 | < 10 | – | 10 to 100 | COc1ccccc1C(=O)NCc1ccc(-c2nn(C3CCOCC3F)c(N)c2C(N)=O)cc1 (single isomer, unassigned) [Example 96, 5-amino-1-[3-fluorotetrahydropyran-4-yl]-3-[4-[[(2-methoxybenzoyl)amino]methyl]phenyl]pyrazole-4-carboxamide]
1000 to 10000 | 10 to 100 | 10 to 100 | 100 to 1000 | – | COc1ccccc1C(=O)NCc1ccc(-c2nn(C3CCCC3)c(C)c2C(N)=O)cc1 [Example 24, 1-Cyclopentyl-3-[4-[[(2-methoxybenzoyl)amino]methyl]phenyl]-5-methyl-pyrazole-4-carboxamide]
100 to 1000 | < 10 | < 10 | 10 to 100 | – | COc1ccccc1C(=O)NCc1ccc(-c2nn(C3CCCOC3)c(N)c2C(N)=O)cc1 (stereo not shown) [Example 80, 5-amino-3-[4-[[(2-methoxybenzoyl)amino]methyl]phenyl]-1-tetrahydropyran-3-yl-pyrazole-4-carboxamide]
1000 to 10000 | 100 to 1000 | 100 to 1000 | 1000 to 10000 | – | COc1ccccc1C(=O)NC(C)c1ccc(-c2nn(C3CCCC3)c(N)c2C(N)=O)cc1 (stereo not shown) [Example 79, 5-amino-1-cyclopentyl-3-[4-[1-[(2-methoxybenzoyl)amino]ethyl]phenyl]pyrazole-4-carboxamide]
